Measured values published in publication PMC12655637, “Design, Synthesis, and Mechanistic Study of Novel Ciprofloxacin/Thiazole Chalcone Hybrids as Potential Anticancer Agents” (Pharmaceuticals, 2025).

Key:
Experiment in all cases: NCI-60 screening, one-dose (10 µM) and five-dose, SRB
EKVX = format: cell-based, human; conditions: Homo sapiens, 10 μM, Non-Small-Cell Lung Cancer, read-out: Growth percentage
SF-268 = format: cell-based, human; conditions: Homo sapiens; 10 μM; SF-268, CNS Cancer; read-out: Growth percentage
HCT-116 = format: cell-based, human; conditions: Homo sapiens
COLO 205 = format: cell-based, human; conditions: Homo sapiens; 10 μM; COLO 205, Colon Cancer; read-out: Growth percentage
HCC-2998 = format: cell-based, human; conditions: Homo sapiens; 10 μM; HCC-2998, Colon Cancer; read-out: Growth percentage
NCI-H460 = format: cell-based, human; conditions: Homo sapiens, NCI-H460, 10 μM; NCI-H460, Non-Small-Cell Lung Cancer; read-out: Growth percentage
ACHN = format: cell-based, human; conditions: Homo sapiens, 10 μM, Renal Cancer, read-out: Growth percentage
OVCAR-4 = format: cell-based, human; conditions: Homo sapiens; 10 μM; OVCAR-4, Ovarian Cancer; read-out: Growth percentage
HS 578T = format: cell-based, human; conditions: Homo sapiens, 10 μM, Breast Cancer, read-out: Growth percentage
MCF7 = format: cell-based, human; conditions: Homo sapiens, MCF7, 10 μM; MCF7, Breast Cancer; read-out: Growth percentage
RPMI-8226 = format: cell-based, human; conditions: Homo sapiens
NCI-H226 = format: cell-based, human; conditions: Homo sapiens; 10 μM; NCI-H226, Non-Small-Cell Lung Cancer; read-out: Growth percentage
NCI-H23 = format: cell-based, human; conditions: Homo sapiens; 10 μM; NCI-H23, Non-Small-Cell Lung Cancer; read-out: Growth percentage
TK-10 = format: cell-based, human; conditions: Homo sapiens; 10 μM; TK-10, Renal Cancer; read-out: Growth percentage
SF-295 = format: cell-based, human; conditions: Homo sapiens; 10 μM; SF-295, CNS Cancer; read-out: Growth percentage
HOP-92 = format: cell-based, human; conditions: Homo sapiens; 10 μM; HOP-92, Non-Small-Cell Lung Cancer; read-out: Growth percentage
CCRF-CEM = format: cell-based, human; conditions: Homo sapiens, 10 μM, Leukemia, read-out: Growth percentage
786−0 = format: cell-based, human; conditions: Homo sapiens; 10 μM; 786−0, Renal Cancer; read-out: Growth percentage
SN12C = format: cell-based, human; conditions: Homo sapiens, 10 μM, Renal Cancer, read-out: Growth percentage
SW-620 = format: cell-based, human; conditions: Homo sapiens; 10 μM; SW-620, Colon Cancer; read-out: Growth percentage
UACC-257 = format: cell-based, human; conditions: Homo sapiens; 10 μM; UACC-257, Melanoma; read-out: Growth percentage
SK-MEL-2 = format: cell-based, human; conditions: Homo sapiens; 10 μM; SK-MEL-2, Melanoma; read-out: Growth percentage
DU-145 = format: cell-based, human; conditions: Homo sapiens; 10 μM; DU-145, Prostate Cancer; read-out: Growth percentage
RXF 393 = format: cell-based; conditions: Homo sapiens; 10 μM; RXF 393, Renal Cancer; read-out: Growth percentage
CAKI-1 = format: cell-based; conditions: Homo sapiens; 10 μM; CAKI-1, Renal Cancer; read-out: Growth percentage
MDA-MB-468 = format: cell-based, human; conditions: Homo sapiens, MDA-MB-468, 10 μM; MDA-MB-468, Breast Cancer; read-out: Growth percentage
From the text: Control cells Test cells FLD
available usually at NCI library.
An aliquot of frozen drug concentrate is […]

K-562 = format: cell-based, human; conditions: Homo sapiens, K562, 10 μM; K-562, Leukemia; read-out: Growth percentage
KM12 = format: cell-based, human; conditions: Homo sapiens, KM12, 10 μM; KM12, Colon Cancer; read-out: Growth percentage

`CC(=O)c1sc(SCC(=O)N2CCN(c3cc4c(cc3F)c(=O)c(C(=O)O)cn4C3CC3)CC2)nc1C` [Compound 4a, 7-(4-(2-((5-Acetyl-4-methylthiazol-2-yl)thio)acetyl)piperazin-1-yl)-1-cyclopropyl-6-fluoro-4-oxo-1,4-dihydroquinoline-3-carboxylic Acid] showed an activity at 10 µM (EKVX) of 104%, an activity at 10 µM (SF-268) of 103% and an activity at 10 µM (HCT-116; HCT-116, 10 μM, HCT-116, Colon Cancer, read-out: Growth percentage) of 113%. For the same compound, the activity at 10 µM (COLO 205) was 118%, the activity at 10 µM (HCC-2998) was 96.6% and the activity at 10 µM (NCI-H460) was 104%. The activity at 10 µM (ACHN) was 98.3%, the activity at 10 µM (OVCAR-4) was 95.1% and the activity at 10 µM (HS 578T) was 87.4%. It also gave an activity at 10 µM (MCF7) of 94.2%, an activity at 10 µM (RPMI-8226; RPMI-8226, 10 μM, RPMI-8226, Leukemia, read-out: Growth percentage) of 133% and an activity at 10 µM (NCI-H226) of 117%. It also gave an activity at 10 µM (NCI-H23) of 106%, an activity at 10 µM (TK-10) of 97.9% and an activity at 10 µM (SF-295) of 94.2%. For the same compound, the activity at 10 µM (HOP-92) was 105%, the activity at 10 µM (CCRF-CEM) was 96.2% and the activity at 10 µM (786−0) was 96.2%. It also gave an activity at 10 µM (SN12C) of 98%, an activity at 10 µM (SW-620) of 113% and an activity at 10 µM (UACC-257) of 102%. For the same compound, the activity at 10 µM (SK-MEL-2) was 97.4%, the activity at 10 µM (DU-145) was 95.3% and the activity at 10 µM (RXF 393) was 91.7%. For the same compound, the activity at 10 µM (CAKI-1) was 99.2%, the activity at 10 µM (MDA-MB-468) was 111% and the activity at 10 µM (K-562) was 123%. It also gave an activity at 10 µM (KM12) of 102%.
In the case of `COc1cccc(/C=C/C(=O)c2sc(SCC(=O)N3CCN(c4cc5c(cc4F)c(=O)c(C(=O)O)cn5C4CC4)CC3)nc2C)c1OC` [Compound 4k, (E)-1-Cyclopropyl-7-(4-(2-((5-(3-(2,3-dimethoxyphenyl)acryloyl)-4-methylthiazol-2-yl)thio)acetyl)piperazin-1-yl)-6-fluoro-4-oxo-1,4-dihydroquinoline-3-carboxylic Acid], the activity at 10 µM (EKVX) is reported as 96.9%, the activity at 10 µM (SF-268) is reported as 109% and the IC50 (HCT-116; colon HCT-116) is reported as 340 nM. It also gave an activity at 10 µM (COLO 205) of 126%, an activity at 10 µM (HCC-2998) of 76.8% and an activity at 10 µM (NCI-H460) of 73.1%. It also gave an activity at 10 µM (ACHN) of 105%, an activity at 10 µM (OVCAR-4) of 118% and an activity at 10 µM (HS 578T) of 92.8%. For the same compound, the IC50 (RPMI-8226; RPMI-8226, RPMI-8226) was 340 nM, the activity at 10 µM (NCI-H226) was 102% and the activity at 10 µM (NCI-H23) was 87.9%. The activity at 10 µM (TK-10) was 105%, the activity at 10 µM (SF-295) was 97.4% and the activity at 10 µM (HOP-92) was 122%. The activity at 10 µM (CCRF-CEM) was 72%, the activity at 10 µM (786−0) was 96.9% and the activity at 10 µM (SN12C) was 87.5%. The activity at 10 µM (SW-620) was 90.7%, the activity at 10 µM (UACC-257) was 102% and the activity at 10 µM (SK-MEL-2) was 93.4%. For the same compound, the activity at 10 µM (DU-145) was 98%, the activity at 10 µM (RXF 393) was 86.3% and the activity at 10 µM (CAKI-1) was 107%. The activity at 10 µM (MDA-MB-468) was 48.5%, the activity at 10 µM (K-562) was 133% and the activity at 10 µM (KM12) was 4.4%.
